Here are results for twelve compounds from ChEMBL document CHEMBL1201862, “PubChem BioAssay data set” (2004).

The structures appear in SMILES notation. Where a name gives a salt, the structure may show the parent alone.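 Assay format: 96-well plates, 48-hour exposure. GI50 = concentration required for 50% inhibition of growth.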 Activity calls are given as the source filed them. No stated cut-off is given here; in the data, active = GI50 up to about 1.1 µM and inactive = higher. Where a SMILES comes first, the peptide text is derived from it. The star is where a group is joined. Boc = CC(C)(C)OC(=O)*

Test systems include NCI/ADR-RES; COLO 205; OVCAR-4; MDA-N; U-251; SK-MEL-5; UACC-257; ACHN; OVCAR-8; HCT-15; IGROV-1; OVCAR-3; DU-145; SW-620; SF-268; NCI-H460; CCRF-CEM; TK-10.
Experiment in all cases: growth of human tumour cells (NCI), 48 h

Regarding `c1ccc(/C(=N/Nc2ccccn2)c2ncccn2)cc1`, the GI50 was 1.43 µM (inactive) with NCI/ADR-RES; < 0.0139 µM (active) in the test with COLO 205; 1.28 µM (inactive) in the test with OVCAR-4; 16.5 µM (inactive) in the test with MDA-N; 2.07 µM (inactive) in the test with U-251; 0.745 µM (active) with SK-MEL-5. Further, the GI50 in the test with UACC-257 is 0.729 µM (active); with ACHN, 0.112 µM (active); with OVCAR-8, 0.369 µM (active); with HCT-15 it was 0.526 µM; in the test with IGROV-1 it was 2.07 µM (inactive); in the test on OVCAR-3, 0.386 µM (active). Also, the GI50 in the test with DU-145 is 3.99 µM (inactive); in the test on SW-620 it was 0.0982 µM (active); in the test with SF-268 it was 0.855 µM (active); in the test on NCI-H460, 0.906 µM (active); in the test with CCRF-CEM, < 0.0183 µM (active).
For `COC(=O)c1cn(CCCC(=O)O)nn1`, the GI50 in the test on NCI/ADR-RES, with COLO 205, in the test with OVCAR-4, in the test with MDA-N, with U-251 and in the test with SK-MEL-5 was > 100 µM (inactive) each time. The GI50 with UACC-257 was > 100 µM (inactive); in the test on ACHN, > 100 µM (inactive); with OVCAR-8, > 100 µM (inactive); in the test on HCT-15, over 100 µM; in the test with IGROV-1 it was > 100 µM (inactive); in the test on DU-145, > 100 µM (inactive). Further, the GI50 with SW-620, with SF-268, in the test with TK-10, with NCI-H460 and in the test on CCRF-CEM was > 100 µM (inactive) throughout.
In the case of `COc1ccc(/C=C2\CCS(=O)(=O)c3ccccc3C2=O)cc1`, the GI50 in the test on NCI/ADR-RES was 20.1 µM (inactive); in the test on COLO 205 it was 15.2 µM (inactive); in the test with OVCAR-4, 24.5 µM (inactive); with MDA-N it was 31.4 µM (inactive); in the test on U-251, 17.8 µM (inactive); in the test with UACC-257, 23.3 µM (inactive). In addition, the GI50 was 24.4 µM (inactive) with ACHN; 22.2 µM (inactive) in the test with OVCAR-8; 19.6 µM in the test on HCT-15; 18.2 µM (inactive) in the test on IGROV-1; 30 µM (inactive) in the test with OVCAR-3; 23.2 µM (inactive) with DU-145. Moreover, the GI50 in the test with SW-620 is 20.9 µM (inactive); in the test with SF-268 it was 30.3 µM (inactive); in the test with TK-10, 23.2 µM (inactive); with NCI-H460 it was 21.7 µM (inactive); in the test with CCRF-CEM, 20 µM (inactive).
In the case of `CCOC(=O)C12OC(OCC)(CC1(OCC)OCC)C1(CC1)C2=O` (stereo not given), the GI50 in the test on NCI/ADR-RES, in the test with COLO 205, in the test with OVCAR-4, in the test on MDA-N, in the test on U-251 and in the test with SK-MEL-5 was > 100 µM (inactive) in each case. Also, the GI50 in the test with UACC-257 is > 100 µM (inactive); in the test on ACHN, > 100 µM (inactive); with OVCAR-8, > 100 µM (inactive); in the test with HCT-15 it was over 100 µM; with IGROV-1, > 100 µM (inactive); with OVCAR-3, > 100 µM (inactive). For the same compound, the GI50 with DU-145, in the test on SW-620, with SF-268, in the test on TK-10, in the test with NCI-H460 and with CCRF-CEM was > 100 µM (inactive) in each case.
Turning to `S=C1SC(=N\c2ccccc2)/C(=N/c2ccccc2)N1c1ccc2ccccc2c1`, the GI50 is > 100 µM (inactive) in the test on NCI/ADR-RES; > 100 µM (inactive) in the test on COLO 205; 80.7 µM (inactive) with OVCAR-4; > 100 µM (inactive) in the test on MDA-N; > 100 µM (inactive) with U-251; 38.1 µM (inactive) in the test on SK-MEL-5. The GI50 with OVCAR-8 is > 100 µM (inactive); in the test with HCT-15, 93.3 µM; with IGROV-1 it was > 100 µM (inactive); in the test on OVCAR-3, > 100 µM (inactive); in the test with DU-145, > 100 µM (inactive); in the test on NCI-H460, > 10 µM (inactive). Also, the GI50 in the test with CCRF-CEM was > 100 µM (inactive).
As to `Cc1nn(C(=O)c2ccccc2O)c2c1C(c1ccco1)SC(=N)N2` (stereo not given), the GI50 was 3.22 µM (inactive) in the test with NCI/ADR-RES; 5.83 µM (inactive) with COLO 205; 3.04 µM (inactive) in the test on OVCAR-4; 7.4 µM (inactive) with MDA-N; 5.28 µM (inactive) in the test on U-251; 9.89 µM (inactive) in the test on UACC-257. Also, the GI50 was 3.42 µM (inactive) in the test on ACHN; 3.61 µM (inactive) in the test with OVCAR-8; 3.53 µM with HCT-15; 4.42 µM (inactive) in the test with IGROV-1; 3.32 µM (inactive) in the test with OVCAR-3; 3.63 µM (inactive) with DU-145. Besides, the GI50 is 5.24 µM (inactive) with SW-620; 4.09 µM (inactive) in the test with SF-268; > 10 µM (inactive) in the test with TK-10; 4.32 µM (inactive) with NCI-H460; 2.95 µM (inactive) in the test with CCRF-CEM.
In the case of `CCCCOCCOCCOC1=CC(=O)c2c(O)ccc(O)c2C1=O`, the GI50 in the test with NCI/ADR-RES was 2.14 µM (inactive); in the test on COLO 205, 1.4 µM (inactive); in the test on OVCAR-4, 1.94 µM (inactive); in the test with MDA-N, 0.167 µM (active); in the test with U-251, 1.85 µM (inactive); in the test with SK-MEL-5, 1.05 µM (active). The GI50 with UACC-257 was 1.58 µM (inactive); in the test with ACHN, 1.66 µM (inactive); in the test on IGROV-1 it was 1.89 µM (inactive); with OVCAR-3, 1.61 µM (inactive); with DU-145 it was 1.7 µM (inactive); with SW-620 it was 1.57 µM (inactive). Besides, the GI50 in the test on SF-268 was 4.26 µM (inactive); with TK-10, 3.05 µM (inactive); with NCI-H460 it was 1.95 µM (inactive); with CCRF-CEM it was 2.14 µM (inactive).
For the compound `C[C@@H]1C[C@@H](O)[C@@]2(O)C13CC(=O)OC(C3)[C@@H](C)[C@@]2(C)CO` (stereo not given in full), the GI50 in the test on NCI/ADR-RES, with COLO 205, in the test on OVCAR-4, in the test on MDA-N, with U-251 and in the test with SK-MEL-5 was > 100 µM (inactive) in each case. Besides, the GI50 in the test on UACC-257 was > 100 µM (inactive); in the test on ACHN, > 100 µM (inactive); with OVCAR-8, > 100 µM (inactive); in the test on HCT-15, over 100 µM; in the test on IGROV-1, > 100 µM (inactive); in the test with OVCAR-3, > 100 µM (inactive). Also, the GI50 in the test on DU-145, with SW-620, with SF-268, in the test with TK-10 and with NCI-H460 was > 100 µM (inactive) each time.
Turning to `N#CCCN(CCCN(C(=O)N(c1ccccc1)c1ccccc1)c1ccccc1)C(=O)Nc1ccccc1`, the GI50 in the test on NCI/ADR-RES was 30.1 µM (inactive); in the test on COLO 205, > 10 µM (inactive); with OVCAR-4, 95.1 µM (inactive); with MDA-N, > 100 µM (inactive); in the test on U-251 it was 92 µM (inactive); in the test on SK-MEL-5, 24.9 µM (inactive). In addition, the GI50 with UACC-257 was 74 µM (inactive); in the test on ACHN, 93.3 µM (inactive); in the test with OVCAR-8, 21.5 µM (inactive); with HCT-15, over 100 µM; in the test on OVCAR-3, > 100 µM (inactive); in the test on DU-145 it was > 100 µM (inactive). The GI50 with SW-620 was > 100 µM (inactive); with SF-268 it was > 100 µM (inactive); in the test on TK-10 it was > 100 µM (inactive); in the test with NCI-H460, 40 µM (inactive); in the test on CCRF-CEM it was 15.9 µM (inactive).
Regarding `CCCCCCCCCCCCCCCCOc1ccc(/C=C/C2=[N+](CCCl)CCO2)cc1`, the GI50 was 56.1 µM (inactive) in the test on NCI/ADR-RES; 67.6 µM (inactive) in the test with COLO 205; > 100 µM (inactive) in the test on OVCAR-4; > 100 µM (inactive) in the test with MDA-N; 32.9 µM (inactive) in the test with U-251; > 100 µM (inactive) with SK-MEL-5. Further, the GI50 was > 100 µM (inactive) with UACC-257; > 100 µM (inactive) in the test with ACHN; 42 µM (inactive) in the test with OVCAR-8; over 100 µM in the test with HCT-15; 61.2 µM (inactive) in the test with IGROV-1; > 100 µM (inactive) in the test on OVCAR-3. Also, the GI50 is > 100 µM (inactive) in the test on DU-145; > 100 µM (inactive) in the test with SW-620; 47.1 µM (inactive) with TK-10; 90.4 µM (inactive) with NCI-H460; > 100 µM (inactive) with CCRF-CEM.
`CCOC(=O)C(CC(C)C)NC(=O)C(Cc1ccccc1)NC(=O)CNC(=O)OC(C)(C)C` (stereo not drawn) (Boc-Gly-Phe-Leu-OEt; configuration not given here): the GI50 with NCI/ADR-RES is 80.2 µM (inactive); in the test on OVCAR-4, 36.9 µM (inactive); in the test with MDA-N it was 14.7 µM (inactive); with U-251, 17.7 µM (inactive); in the test with SK-MEL-5, 20.8 µM (inactive); with UACC-257, 19.7 µM (inactive). Moreover, the GI50 in the test with ACHN was 17.1 µM (inactive); in the test with OVCAR-8, 21.7 µM (inactive); with HCT-15, 18.4 µM; in the test on IGROV-1 it was 21.6 µM (inactive); in the test on OVCAR-3 it was 17.2 µM (inactive); in the test on DU-145, 21.3 µM (inactive). Moreover, the GI50 in the test with SW-620 was 20.6 µM (inactive); in the test with SF-268 it was 21 µM (inactive); in the test on TK-10, 31 µM (inactive); in the test on NCI-H460, 12.1 µM (inactive); in the test with CCRF-CEM, 16.6 µM (inactive).
On to `c1ccc([C@H]2CN3CCSC3=N2)cc1` [LEVAMISOLE HYDROCHLORIDE], for which the GI50 in the test on NCI/ADR-RES, with COLO 205, in the test with OVCAR-4, in the test on MDA-N, in the test on U-251 and with SK-MEL-5 was > 100 µM (inactive) in each case. Moreover, the GI50 was > 100 µM (inactive) in the test on UACC-257; > 100 µM (inactive) in the test with ACHN; > 100 µM (inactive) in the test on OVCAR-8; over 100 µM in the test with HCT-15; > 100 µM (inactive) in the test with IGROV-1; > 100 µM (inactive) in the test with OVCAR-3. For the same compound, the GI50 in the test on DU-145, in the test on SW-620, with SF-268, in the test with NCI-H460 and with CCRF-CEM was > 100 µM (inactive) throughout.
